Measurements as given in ChEMBL document CHEMBL1132832, “Programmed cell death (PCD) associated with the stilbene motif of arotinoids: discovery of novel apoptosis inducer agents possessing activity on multidrug resistant tumor cells” (Bioorg Med Chem Lett, 2000).

Legend:
Type in all cases: functional, cell-based
[1] = system: HL-60; assay: In vitro cytotoxicity against HL60 cells.; details: Homo sapiens
[2] = system: HL-60; assay: In vitro apoptotic activity against HL60 cells after 48 hr of treatment.; details: Homo sapiens, HL-60, 48 h
[3] = system: HL-60; assay: The compound evaluated for Cytotoxic activity against multi drug resistant HL60R cells (the results were obtained after 48 hr treatment); details: Homo sapiens, HL-60, 48 h
[4] = system: K562; assay: The compound evaluated for Cytotoxic activity against multi drug resistant K562 cells (the results were obtained after 48 hr treatment); details: Homo sapiens, K562, 48 h
[5] = system: HuT78; assay: The compound evaluated for apoptotic activity against multi drug resistant HUT 78 cells (the results were obtained after 48 hr treatment); details: Homo sapiens, HuT78, 48 h
[6] = system: HuT78; assay: The compound evaluated for Cytotoxic activity against multi drug resistant HUT 78 cells (the results were obtained after 48 hr treatment); details: Homo sapiens, HuT78, 48 h
[7] = system: K562; assay: The compound evaluated for apoptotic activity against K562 cells (the results were obtained after 48 hr treatment); details: Homo sapiens, K562, 48 h
[8] = system: HL-60; assay: The compound evaluated for apoptotic activity against multi drug resistant HL60 R cells (the results were obtained after 48 hr treatment); details: Homo sapiens, HL-60, 48 h
[9] = system: HuT78; assay: The compound evaluated for apoptotic activity against HUT 78 cells (the results were obtained after 48 hr treatment); details: Homo sapiens, HuT78, 48 h

Row | SMILES | IC50 [1] | AC50 [2] | other results
1 | C/C(=C\c1ccc(C(=O)O)cc1)c1ccc2c(c1)C(C)(C)CCC2(C)C | 46 µM | > 100 µM | 
2 | COc1ccc(/C=C(/C)c2ccc3c(c2)C(C)(C)CCC3(C)C)cc1N | 42 µM | 90 µM | 
3 | COc1ccc(/C=C(\C)c2ccc3c(c2)C(C)(C)CCC3(C)C)cc1N | 20 µM | 40 µM | 
4 | C/C(=C/c1ccc(C(=O)O)cc1)c1ccc2c(c1)C(C)(C)CCC2(C)C | 10 µM | 40 µM | 
5 | C/C(=C\c1cccc(C(=O)O)c1)c1ccc2c(c1)C(C)(C)CCC2(C)C | > 100 µM | > 100 µM | 
6 | COc1ccc(/C=C/c2ccc3c(c2)C(C)(C)CCC3(C)C)cc1 | 50 µM | > 100 µM | 
7 | COc1ccc(/C=C\c2ccc3c(c2)C(C)(C)CCC3(C)C)cc1 | 50 µM | > 100 µM | 
8 | COc1ccc(/C=C/c2ccc3c(c2)C(C)(C)CCC3(C)C)cc1N | 61 µM | 85 µM | 
9 | C/C(=C/c1cccc(C(=O)O)c1)c1ccc2c(c1)C(C)(C)CCC2(C)C | 50 µM | 80 µM | 
10 | CC1(C)CCC(C)(C)c2cc(/C=C\c3ccc(N)cc3)ccc21 | 18 µM | 38 µM | IC50 [3]: 25 µM; IC50 [4]: 50 µM; AC50 [5]: > 100 µM; IC50 [6]: 43 µM; AC50 [7]: > 100 µM; AC50 [8]: > 100 µM
11 | COc1ccc(/C=C\c2ccc3c(c2)C(C)(C)CCC3(C)C)cc1N | 25 µM | 50 µM | IC50 [3]: 48 µM; IC50 [4]: 42 µM; AC50 [9]: 46 µM; IC50 [6]: 22 µM; AC50 [7]: 50 µM; AC50 [8]: 87 µM
12 | CC1(C)CCC(C)(C)c2cc(/C=C/c3ccc(N)cc3)ccc21 | 18 µM | 38 µM | 
13 | CC1(C)CCC(C)(C)c2cc(/C=C\c3cccc(N)c3)ccc21 | 10 µM | 10 µM | IC50 [3]: 15 µM; IC50 [4]: 13 µM; AC50 [9]: 10 µM; IC50 [6]: 5 µM; AC50 [7]: 27 µM; AC50 [8]: 25 µM
14 | C/C(=C/c1ccccc1C(=O)O)c1ccc2c(c1)C(C)(C)CCC2(C)C | 52 µM | 90 µM | 
15 | CC1(C)CCC(C)(C)c2cc(/C=C/c3cccc(N)c3)ccc21 | 20 µM | 40 µM | 
16 | C/C(=C\c1ccccc1C(=O)O)c1ccc2c(c1)C(C)(C)CCC2(C)C | > 100 µM | > 100 µM | 
17 | C/C(=C/c1cc(C(=O)O)no1)c1ccc2c(c1)C(C)(C)CCC2(C)C | 26 µM | 47 µM | 
18 | CC1=C(/C=C/C(C)=C/C=C/C(C)=C/C(=O)O)C(C)(C)CCC1 [TRETINOIN] |  | > 100 µM | 
